From PubChem BioAssay (NCI)
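These data come from cells grown in 96-well plates and exposed to compound for 48 hours at five concentrations. At the TGI there is no net growth.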

How the values were obtained:
Assay in all cases: NCI-60 cell line screen, 48 h
[1] = test system: 786-0 renal
[2] = test system: A498 renal
[3] = test system: A549 NSCLC
[4] = test system: ACHN renal
[5] = test system: CAKI-1 renal
[6] = test system: CCRF-CEM leukemia
[7] = test system: DLD-1 colon
[8] = test system: DMS 114 small cell lung
[9] = test system: DMS 273 small cell lung
[10] = test system: EKVX NSCLC
[11] = test system: HCC-2998 colon
[12] = test system: HCT-116 colon
[13] = test system: HCT-15 colon
[14] = test system: HL-60(TB) leukemia
[15] = test system: HOP-62 NSCLC
[16] = test system: HT29 colon
[17] = test system: IGROV1 ovarian
[18] = test system: K-562 leukemia
[19] = test system: KM12 colon
[20] = test system: KM20L2 colon
[21] = test system: M14 melanoma
[22] = test system: M19-MEL melanoma
[23] = test system: MALME-3M melanoma
[24] = test system: MOLT-4 leukemia
[25] = test system: NCI-H226 lung
[26] = test system: NCI-H23 lung
[27] = test system: NCI-H460 lung
[28] = test system: OVCAR-3 ovarian
[29] = test system: OVCAR-4 ovarian
[30] = test system: OVCAR-5 ovarian
[31] = test system: OVCAR-8 ovarian
[32] = test system: RPMI-8226 leukemia
[33] = test system: RXF 393 renal
[34] = test system: RXF-631 renal
[35] = test system: SF-295 CNS
[36] = test system: SF-539 CNS
[37] = test system: SK-MEL-2 melanoma
[38] = test system: SK-MEL-28 melanoma
[39] = test system: SK-MEL-5 melanoma
[40] = test system: SK-OV-3 ovarian
[41] = test system: SNB-75 CNS
[42] = test system: SNB-78 CNS
[43] = test system: SW-620 colon
[44] = test system: TK-10 renal
[45] = test system: U251 CNS
[46] = test system: UACC-257 melanoma
[47] = test system: UACC-62 melanoma
[48] = test system: UO-31 renal
[49] = test system: XF 498 CNS
[50] = test system: COLO 205 colon
[51] = test system: HOP-18 NSCLC
[52] = test system: HOP-92 NSCLC
[53] = test system: LOX IMVI melanoma
[54] = test system: LXFL 529 NSCLC
[55] = test system: NCI-H522 lung
[56] = test system: SF-268 CNS
[57] = test system: SN12C renal
[58] = test system: SNB-19 CNS
[59] = test system: SR leukemia

Measured: TGI

Cn1cc(C(=O)/C(Cl)=C(\Cl)C(=O)O)c2ccccc21
> 100 µM: [1] | [2] | [3] | [4] | [5] | [6] | [7] | [8] | [9] | [10] | [11] | [12] | [13] | [14] | [15] | [16] | [17] | [18] | [19] | [20] | [21] | [22] | [23] | [24] | [25] | [26] | [27] | [28] | [29] | [30] | [31] | [32] | [33] | [34] | [35] | [36] | [37] | [38] | [39] | [40] | [41] | [42] | [43] | [44] | [45] | [46] | [47] | [48] | [49]

c1cc2[se][se]c3c4cccc5[se][se]c(c(c1)c23)c54
> 100 µM: [1] | [2] | [3] | [4] | [5] | [6] | [50] | [7] | [8] | [9] | [12] | [14] | [51] | [15] | [52] | [16] | [17] | [18] | [19] | [20] | [53] | [54] | [21] | [22] | [23] | [24] | [25] | [26] | [27] | [55] | [28] | [29] | [30] | [31] | [32] | [33] | [56] | [35] | [36] | [37] | [38] | [39] | [40] | [57] | [58] | [41] | [42] | [59] | [43] | [44] | [45] | [46] | [47] | [48] | [49]
